For 4 compounds, Ki results are on record in US20140275049A1, “SUBSTITUTED PYRAZOLE ANALOGS As RAR ANTAGONISTS” (Eli Lilly and Company, priority 2011, published 2014).

One experiment has as its target T1, RARβ (Homo sapiens, UniProt P10826).
T1 construct: made in house; host or cells: baculovirus expression system
T1 sequence (P10826 1-455): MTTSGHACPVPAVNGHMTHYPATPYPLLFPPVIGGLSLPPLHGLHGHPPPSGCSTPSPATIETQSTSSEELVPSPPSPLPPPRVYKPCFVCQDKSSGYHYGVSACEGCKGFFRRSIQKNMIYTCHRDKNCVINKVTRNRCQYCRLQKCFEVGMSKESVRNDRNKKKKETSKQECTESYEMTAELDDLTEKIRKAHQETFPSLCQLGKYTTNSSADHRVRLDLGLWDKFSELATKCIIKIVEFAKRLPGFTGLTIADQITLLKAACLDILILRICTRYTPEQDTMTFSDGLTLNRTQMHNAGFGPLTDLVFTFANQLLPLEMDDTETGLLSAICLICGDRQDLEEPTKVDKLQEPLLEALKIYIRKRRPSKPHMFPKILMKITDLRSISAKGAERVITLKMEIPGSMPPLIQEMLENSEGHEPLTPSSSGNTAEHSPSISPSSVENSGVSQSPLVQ
T1 sequence (P19793 1-462 partner): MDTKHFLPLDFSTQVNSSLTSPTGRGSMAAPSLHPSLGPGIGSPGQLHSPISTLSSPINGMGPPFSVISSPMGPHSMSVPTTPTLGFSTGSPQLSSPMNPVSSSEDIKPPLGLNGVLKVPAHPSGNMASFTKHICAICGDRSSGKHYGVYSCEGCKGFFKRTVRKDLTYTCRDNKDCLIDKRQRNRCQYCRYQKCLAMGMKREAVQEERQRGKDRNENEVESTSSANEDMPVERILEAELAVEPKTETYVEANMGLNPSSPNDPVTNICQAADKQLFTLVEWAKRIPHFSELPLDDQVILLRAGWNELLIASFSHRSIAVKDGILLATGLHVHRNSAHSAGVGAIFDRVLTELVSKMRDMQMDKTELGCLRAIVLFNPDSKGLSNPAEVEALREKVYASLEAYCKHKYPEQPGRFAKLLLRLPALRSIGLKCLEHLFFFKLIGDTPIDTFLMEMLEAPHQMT
In words: RARβ binding assay (SPA, 3H-TTNPB competition). The following applies: RARβ/RXRα heterodimer. From the text: (§1) Compounds can be evaluated for binding to RARα, β and γ by measuring their ability to competitively bind to the RAR receptors when dimerized with the binding partner RXRα. Competitive binding assays may be carried out by Scintillation Proximity Assay (SPA) technology using the RARα, β or γ heterodimer (with RXRα as a partner with all the RARs) receptors prepared in a baculovirus expression system. Use the biotinylated oligonucleotide: 5′-[…]-3′ for binding of receptor to yttrium silicate streptavidin-coated SPA beads. Per well, preincubate […] with 82.7 μg SPA beads in a binding buffer containing 10 mM HEPES pH 7.8, 80 mM KCl, 0.5 mM MgCl2, 1 mM DTT, 0.5% CHAPS and 16.6 μg bovine serum albumin for 30 min at room temperature. Then spin the mixture at 2,000 rpm for 3 min to pelletize the beads-oligo mix. Remove the supernatant and resuspend the beads-oligo pellet in the same binding buffer as above, but which in addition now also contain 14% glycerol, 5 μg of sheared salmon sperm DNA, 0.5 μg of RARα, 1.0 μg of RARβ, or 0.25 μg of RARγ receptor, respectively. Carry out the binding assays in the presence of ˜11.3 μCi of ^3H 4-[(E)-2-(5,6,7,8-tetrahydro-5,5,8,8-tetramethyl-2-naphthalenyl)-1-propenyl]benzoic acid (TTNPB), and multiple concentrations of test compound ranging from (5 nM to 10 μM). Non-specific binding may be determined in the presence of 1 μM unlabeled TTNPB. Use the data to calculate an IC50 for compounds after fitting the dose-response curves to a 4-parameter logistic fit. Use the Cheng-Prusoff equation to convert IC50 (nM) values for compounds to Ki, and the Kd may be determined by saturation binding.

The next experiment concerns the target T2, RARα (Homo sapiens, UniProt P10276).
T2 construct: made in house; host or cells: baculovirus expression system
T2 sequence (P10276 1-462): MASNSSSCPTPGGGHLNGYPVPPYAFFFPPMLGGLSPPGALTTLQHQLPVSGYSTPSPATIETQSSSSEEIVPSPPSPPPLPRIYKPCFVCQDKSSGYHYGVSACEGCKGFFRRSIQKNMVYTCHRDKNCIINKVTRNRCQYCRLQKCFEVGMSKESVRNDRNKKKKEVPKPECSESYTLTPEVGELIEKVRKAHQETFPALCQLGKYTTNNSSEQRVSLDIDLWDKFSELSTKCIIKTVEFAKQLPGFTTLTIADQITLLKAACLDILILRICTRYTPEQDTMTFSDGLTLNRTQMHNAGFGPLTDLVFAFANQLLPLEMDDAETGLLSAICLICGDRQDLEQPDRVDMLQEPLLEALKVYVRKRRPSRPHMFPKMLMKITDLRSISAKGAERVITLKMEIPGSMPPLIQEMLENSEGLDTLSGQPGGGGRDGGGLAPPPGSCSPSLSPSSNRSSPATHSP
T2 sequence (P19793 1-462 partner): T1 sequence (P19793 1-462 partner)
The experiment can be described thus: RARα binding assay (SPA, 3H-TTNPB competition). The following applies: RARα/RXRα heterodimer.
Description: as §1

pKi: −log10 of the molar value. Where only a bound is given, the exact number is not on record here.

Broadly, the pKi is the negative decadic logarithm of the Ki, by convention in mol/L. Lower therefore signals a large Ki.

As to `CN1CCN(C(=O)c2ccc(-n3nc(-c4ccc(C(=O)O)cc4)cc3-c3cc(C(C)(C)C)cc(C(C)(C)C)c3)cc2)CC1` [Example 1, 4-[5-(3,5-Di-tert-butylphenyl)-1-[4-(4-methylpiperazine-1-carbonyl)phenyl]pyrazol-3-yl]benzoic Acid], the values for the negative-log Ki (pKi) at RARβ and on RARα were < 5.74 and < 6.01, respectively.

Take `CC(C)(C)c1cc(-c2cc(-c3ccc(C(=O)O)cc3)nn2-c2ccc(C(=O)N3CCOCC3)cc2)cc(C(C)(C)C)n1` [Example 8, 4-[5-(2,6-Di-tert-butyl-4-pyridyl)-1-[4-(morpholine-4-carbonyl)phenyl]pyrazol-3-yl]benzoic acid]: the pKi at RARβ was 5.85; at RARα, 6.45.

As for `CC(C)Sc1cc(-c2cc(-c3ccc(C(=O)O)cc3)nn2-c2ccc(C(=O)N(C)C)cc2)cc(C(C)(C)C)c1` [Example 12, 4-[5-(3-tert-Butyl-5-isopropylsulfanyl-phenyl)-1-[4-(dimethylcarbamoyl)phenyl]pyrazol-3-yl]benzoic Acid], the pKi at RARβ was 6.22; at RARα it was 6.41.

In the case of `CC(C)(C)c1cc(-c2cc(-c3ccc(C(=O)O)cc3)nn2-c2ccc(S(C)(=O)=O)cc2)cc(C(C)(C)C)c1` [Example 19, 4-[5-(3,5-Di-tert-butylphenyl)-1-(4-methylsulfonylphenyl)pyrazol-3-yl]benzoic Acid], the values for the negative logarithm of the Ki (pKi) at RARβ and at RARα were 6.08 and 6.55, respectively.
